In brackets after ≈: the same amount, converted by molar mass.

The subject of this experiment is Staphylococcus aureus. The experiment can be described thus: Antibacterial activity against methicillin-resistant Staphylococcus aureus after 20 hrs. Type of experiment: functional.
With `CC(=O)OCC1=C(C(=O)O)N2C(=O)[C@@H](NC(=O)CSc3ccncc3)[C@H]2SC1` [CEPHAPIRIN], the MIC (commonly the lowest concentration that inhibits growth of the organism) was found to be 10.5 µg/mL (≈ 24.8 µM).

The molecule `CO[C@@H]1C[C@H](O[C@H]2CC[C@@]3(C)C(=CC[C@H]4C(=O)O[C@@H]5CO[C@]6(C)O[C@H](O)/C(=C/C[C@@H]43)[C@H]56)C2)O[C@H](C)[C@H]1O` [PANICULATUMOSIDE A] registered an MIC of 180 µg/mL (≈ 345 µM). Compared with the last molecule, the MIC is about 17-fold higher. Turning to `CO[C@@H]1C[C@H](O[C@H]2CC[C@@]3(C)C(=CC[C@H]4C(=O)O[C@H]5CO[C@]6(C)O[C@@H](O)/C(=C/C[C@@H]43)[C@H]56)C2)O[C@H](C)[C@H]1O` [PANICULATUMOSIDE B], the MIC is 149 µg/mL (≈ 285 µM). This MIC and that of the molecule before are within 1.5-fold of each other.

The values are drawn from ChEMBL document CHEMBL1146463, “A pair of new C-21 steroidal glycoside epimers from the roots of Cynanchum paniculatum” (2004).
